Reference: patent publication US20220288148A1, “METHODS FOR RELIEVING BACK PAIN WITH TERMINALIA CHEBULA COMPOSITIONS” (Natreon, Inc., priority 2021, published 2022)

Experiments:
[1] = test system: low back pain; experiment: Case reports of human subjects with low back pain (Examples 2-5); type: in vivo; settings: before AyuFlex
Description: Several human subjects suffering from back pain were administered an effective amount of a T. chebula composition according to the present invention (AyuFlex®, an aqueous extract of T. chebula fruit in powdered and standardized form, orally administered in a capsule containing 500 mg of the extract). […] Subject weights ranged from 54.5 kg to 72.7 kg, and daily doses ranged from 500 mg to 2000 mg per day of AyuFlex®, which may be calculated at a dose range of about 6.88 mg AyuFlex®/kg body weight of a subject to about 36.7 mg AyuFlex®/kg body weight of a subject.
Prior to administration of AyuFlex®, the subject reported a history of suffering from chronic low back pain, described by the subject as sciatic pain, as well as from patellar tendonitis, for the past ten years. The subject indicated their belief that the low back pain was due to a very active lifestyle that included lifting heavy weights. They previously attempted to relieve the chronic low back pain with numerous rounds of physical therapy and rehab-based regimens, but was only provided with temporary relief until they resumed exercise.
The subject began oral administration of 2 (two) 500 mg AyuFlex® capsules daily to treat their low back pain.
Prior to administration of AyuFlex®, the subject reported a history of back pain described by the subject as sciatic pain, beginning when they were young. They were a gymnast for many years, and as a result injured their back. They were diagnosed with small compression fractures and disk bulges in their lower back. Throughout their teen years, the subject underwent intermittent physical therapy, and also sought treatment from a chiropractor for two years. Although the subject reported some temporary relief from these treatments, their pain was not resolved.
The subject further reported that, due to lack of exercise over the years, their sciatic pain became extremely severe. […] Within a month of the onset of these severe symptoms, the subject described having only one or two days where […] was pain-free. […] reported relying heavily on acetaminophen (Tylenol®) and ibuprofen (Advil®) to ease their pain, as they were often not able to sleep due to the sharp sciatic pain. […] Along with the sciatic pain, for a few months before beginning administration of Ayuflex®, the subject reported experiencing stiffness in […] lower back as well. […] reported needing to bend their back to walk for a few minutes after they would stand.
The subject began oral administration of Ayuflex®, taking a 500 mg capsule twice daily for about 2 months, and then recently chose to increase the dosage to 1000 mg (2 capsules) twice daily. […]

[2] = test system: collagen-induced arthritis; settings: mice with collagen-induced arthritis; cited from earlier work
[3] = test system: subjects with hyperuricemia; settings: cited from earlier work

Row | Compound | subject-reported pain relief by prior analgesics ([1]; Example 3 subject) | subject-reported pain relief by prior analgesics ([1]; Example 5 subject) | further results
1 | CC(=O)Nc1ccc(O)cc1 [acetaminophen] | only relieved their pain for a few hours | only relieved the pain for a few hours | 
2 | O=C(O)C[C@@H]1C(=O)O[C@H]2[C@H](OC(=O)c3cc(O)c(O)c(O)c3)[C@@H](OC(=O)c3cc(O)c(O)c4c3[C@H]1[C@H](O)C(=O)O4)[C@H](OC(=O)c1cc(O)c(O)c(O)c1)O[C@@H]2COC(=O)c1cc(O)c(O)c(O)c1 [chebulinic acid] |  |  | conclusion on anti-VEGF antiangiogenic action for inflammatory arthritis [2]: safe and potent anti-VEGF antiangiogenic agent
3 | Cc1nc(-c2ccc(OCC(C)C)c(C#N)c2)sc1C(=O)O [febuxostat] |  |  | reduction in mean serum uric acid levels compared to baseline ([3]; as early as 4 weeks, T. bellerica 500 and 250 mg BID, febuxostat 40 mg, T. chebula 500 mg BID): Significant reduction; serum uric acid levels, baseline ([3]; baseline, T. bellerica 500 mg BID, febuxostat 40 mg once daily, in mg/dL (unit assumed)): 8.53±0.97; serum uric acid levels at the end of 24 weeks ([3]; end of 24 weeks, T. bellerica 500 mg BID, febuxostat 40 mg once daily, in mg/dL (unit assumed)): 4.28±0.67
4 | CC(C)Cc1ccc(C(C)C(=O)O)cc1 (centres unmarked) [ibuprofen] | only relieved their pain for a few hours | only relieved the pain for a few hours | 
